From the supplement of paper PMC10307832

How the values were obtained:
Assay in all cases: relative viability (nuclei count vs DMSO), 5 days (fraction); higher = more cells survive
[1] = compound: CCN1CCC(CC1)N2C=C(N=N2)CNC3=CC4=C(C(=CN=C4C(=C3)Cl)C#N)NC5=CC(=C(C=C5)F)Cl [KIN001-266] + CS(=O)(=O)CCNCc1ccc(-c2ccc3ncnc(Nc4ccc(OCc5cccc(F)c5)c(Cl)c4)c3c2)o1 [Lapatinib] (partner 2 µM)
Method in brief: (§1)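 A single step with final 0.05% Triton X-100, 1% formaldehyde and 1 ug/ml Hoechst fixed the cells and stained nuclei 5 days after treatment. Lung cancer cell lines in 1536-well plates had been treated by pin tool the day after seeding with one drug alone or a fixed anchor-drug dose plus five library-drug doses (not always all listed) in √10 steps, and nuclei were counted on 4× images. Relative viability is the ratio of nuclei in treated wells to nuclei in vehicle wells, taken as the median of duplicate plates.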

[2] = compound: CCN1CCC(CC1)N2C=C(N=N2)CNC3=CC4=C(C(=CN=C4C(=C3)Cl)C#N)NC5=CC(=C(C=C5)F)Cl [KIN001-266] + NC(=O)Nc1cc(-c2cccc(F)c2)sc1C(=O)N[C@H]1CCCNC1 [AZD7762] (partner 0.2 µM)
Method in brief: as §1

[3] = compound: CCN1CCC(CC1)N2C=C(N=N2)CNC3=CC4=C(C(=CN=C4C(=C3)Cl)C#N)NC5=CC(=C(C=C5)F)Cl [KIN001-266] + Nc1ncn([C@H]2C[C@H](O)[C@@H](CO)O2)c(=O)n1 [Decitabine] (partner 2 µM)
Method in brief: as §1

[4] = compound: CCN1CCC(CC1)N2C=C(N=N2)CNC3=CC4=C(C(=CN=C4C(=C3)Cl)C#N)NC5=CC(=C(C=C5)F)Cl [KIN001-266] + CC(C)C[C@H](NC(=O)[C@H](Cc1ccccc1)NC(=O)c1cnccn1)B(O)O [Bortezomib] (partner 0.002 µM)
Method in brief: as §1

| Cell Line | relative viability ([1]; first compound 0.08 µM) | relative viability ([1]; first compound 0.253 µM) | relative viability ([1]; first compound 0.8 µM) | relative viability ([1]; first compound 2.53 µM) | relative viability ([1]; first compound 8 µM) | relative viability ([2]; first compound 0.08 µM) | relative viability ([2]; first compound 0.253 µM) | relative viability ([2]; first compound 0.8 µM) | relative viability ([2]; first compound 2.53 µM) | relative viability ([2]; first compound 8 µM) | relative viability ([3]; first compound 0.08 µM) | relative viability ([3]; first compound 0.253 µM) | relative viability ([3]; first compound 0.8 µM) | relative viability ([3]; first compound 2.53 µM) | relative viability ([3]; first compound 8 µM) | relative viability ([4]; first compound 0.08 µM) | relative viability ([4]; first compound 0.253 µM) | relative viability ([4]; first compound 0.8 µM) | relative viability ([4]; first compound 2.53 µM) | relative viability ([4]; first compound 8 µM) |
| --- | --- | --- | --- | --- | --- | --- | --- | --- | --- | --- | --- | --- | --- | --- | --- | --- | --- | --- | --- | --- |
| 201T | 1.05 | 0.981 | 0.992 | 1.07 | 1.05 | 0.66 | 0.629 | 0.577 | 0.54 | 0.681 | 0.848 | 0.885 | 0.868 | 0.78 | 0.842 | 1.09 | 0.941 | 1.08 | 1.06 | 1.16 |
| A549 | 1.03 | 0.991 | 1.05 | 0.924 | 0.84 | – | – | – | – | – | 0.401 | 0.207 | 0.24 | 0.35 | 0.223 | – | – | – | – | – |
| A-427 | 1.07 | 1.08 | 1.04 | 0.921 | 1.01 | 0.722 | 0.697 | 0.761 | 0.644 | 0.599 | 0.616 | 0.566 | 0.521 | 0.508 | 0.535 | 1.06 | 1 | 0.955 | 0.982 | 0.817 |
| ABC-1 | 1.18 | 1.08 | 1.12 | 1.14 | 1.1 | 0.991 | 0.856 | 0.745 | 0.761 | 0.837 | 1.19 | 1.18 | 1.07 | 1.09 | 0.855 | 0.269 | 0.344 | 0.346 | 0.288 | 0.274 |
| BEN | 0.779 | 0.764 | 0.77 | 0.835 | 0.953 | 0.729 | 0.705 | 0.676 | 0.539 | 0.709 | 0.975 | 0.696 | 0.754 | 0.623 | 0.752 | 0.899 | 0.698 | 0.885 | 0.909 | 0.921 |
| CAL-12T | 0.826 | 0.706 | – | 0.679 | 0.626 | 0.633 | 0.639 | 0.574 | 0.642 | 0.606 | – | – | – | – | – | 1.04 | 0.976 | – | 1.12 | 0.97 |
| COR-L23 | 0.797 | 0.894 | 0.998 | 0.904 | 0.983 | – | – | – | – | – | 0.487 | 0.497 | 0.466 | 0.464 | 0.389 | 0.966 | 0.994 | 0.927 | 0.857 | 0.777 |
| COR-L 105 | 0.349 | 0.393 | 0.34 | 0.417 | 0.381 | – | – | – | – | – | 0.584 | 0.661 | 0.641 | 0.725 | 0.677 | 0.886 | 0.884 | 0.719 | 0.768 | 0.602 |
